In US20170216452A1, “ANTIBODIES AND ANTIBODY FRAGMENTS FOR SITE-SPECIFIC CONJUGATION” (Pfizer Inc., priority 2015, published 2017):
“Also recorded” adds a separate entry of the source. Where two headings read alike, the source gives them in different places. Square brackets hold non-standard residues; d marks the D form. Peptide text beside a SMILES is read from it. * marks the point of attachment. Dolaproine = CO[C@@H]([C@@H]1CCCN1)[C@@H](C)C(=O)O; Dil = CC[C@H](C)[C@H](NC)[C@@H](CC(=O)O)OC; Doe = c1ccc(C[C@H](N*)c2nccs2)cc1; Aib = CC(C)(N)C(=O)O

Assays:
[1] = system: N87-TM cells (N87-TM-1, N87-TM-2); assay: Cytotoxicity studies (MTS) on T-DM1 resistant N87-TM cells made in vitro; type: cell-based
Method: N87 cells were passaged into two separate flasks and each flask was treated identically with respect to the resistance-generation protocol to enable biological duplicates. […] The procedure was intended to simulate the chronic, multi-cycle (on/off) dosing at maximally tolerated doses typically used for cytotoxic therapeutics in the clinic, followed by a recovery period. […] Drug selection pressure was removed after ˜3-4 months of cycle treatments when the level of resistance no longer increased after continued drug exposure. […] Data were collected from various thawed cryopreserved populations derived from a single selection, over approximately 1-2 years after model development to ensure consistency in the results.
Cells were seeded in 96-well plates at low density, then treated the following day with ADCs and unconjugated payloads at 3-fold serial dilutions at 10 concentrations in duplicate. Cells were incubated for 4 days in a humidified 37° C./5% CO2 incubator. The plates were harvested by incubating with CellTiter® 96 AQueous One MTS Solution (Promega, Madison, Wis.) for 1.5 hours and absorbance measured on a Victor plate reader (Perkin-Elmer, Waltham, Mass.) at wavelength 490 nm. IC50 values were calculated using a four-parameter logistic model with XLfit (IDBS, Bridgewater, N.J.).

N87 parental cells = assay: Cytotoxicity studies (CellTiter Glo, 96 h) on parental N87 cells (Example 15); type: cell-based; settings: read-out: sensitivity to free payload (IC50), N87
Method: (§1) Cells were incubated for 96 hours in a humidified 37° C./5% CO2 incubator.

[2] = system: N87-T-DM1 cells (Mouse #7, #17, #2); assay: Cytotoxicity studies (CellTiter Glo, 96 h) on cells relapsed from T-DM1 treatment in vivo; type: cell-based; settings: for IC50: Mus musculus; for sensitivity of T-DM1 resistant cells generated in vivo: N87-T-DM1 cells compared to parental
Method: as §1

[3] = system: HT29 colon carcinoma cells (EDB+FN negative); assay: In vitro cytotoxicity of anti-EDB ADCs (Cell Titer Glo, 4 days); type: cell-based, human; settings: four days, ng/ml of antibody
Method: Proliferating WI38-VA13 or HT29 cells were harvested from culture flasks with non-enzymatic cell dissociation buffer and cultured overnight in 96-well plates (Corning) at 1000 cells/well in a humidified chamber (37° C., 5% CO2). […] In some experiments, cells were plated at 1500 cells/well and treated the same day. […] On harvest day, 50 μl of Cell Titer Glo (Promega) was added to the cells and incubated 0.5 hours at room temperature. […] Relative cell viability was determined as a percentage of untreated control wells. IC50 values were calculated using four-parameter logistic model #203 with XLfit v4.2 (IDBS).

PDX-PAX-12534 = PDX-PAX-12534 pancreatic PDX model; type: in vivo, mouse; settings: 0.3, 1 and 3 mg/kg
From the text: (§2) To generate PDX models, tumors were collected from donor animals and tumor fragments approximately 3×3 mm were implanted subcutaneously into the flank of female athymic nude mice (for PDX-NSX-11122 model) or NOD SCID mice (for PDX-PAX-13565 and PDX-PAX-12534 models) by using a 10 gage trocar. When average tumor volume reached approximately 160 to 260 mm^3 the mice were randomized into treatment groups, with 7-10 mice in each group. ADCs or vehicle (PBS) dosing regime and administration route as well as tumor measurement procedures are the same as described above for CLX models.

PDX-PAX-13565 = PDX-PAX-13565 pancreatic PDX model; type: in vivo, mouse; settings: 0.3, 1 and 3 mg/kg
From the text: as §2

Ramos = Ramos lymphoma CLX model; type: in vivo, mouse; settings: 3 mg/kg
From the text: (§3) To generate CLX models, 8×10^6 to 10×10^6 cells of H-1975, HT29, or Ramos tumor lines were implanted into female athymic nude mice subcutaneously. Ramos and H-1975 cells for inoculation were suspended in 50% and 100% Matrigel (BD Biosciences), respectively. For the Ramos model, the animals received whole body irradiation (4 Gy) before cell inoculation to facilitate the establishment of tumors. When the average tumor volume reached approximately 160 to 320 mm^3, the animals were randomized into treatment groups, with 8-10 mice in each group. ADCs or vehicle (PBS) were administered intravenously on day 0 and then the animals were dosed once every 4 days for 4 to 8 doses. Tumors were measured once or twice weekly and tumor volume was calculated as volume (mm^3)=(width×width×length)/2.

HT29 = HT29 colon CLX model; type: in vivo, mouse; settings: 3 mg/kg
From the text: as §3

PDX-NSX-11122 = PDX-NSX-11122 NSCLC PDX model; type: in vivo, mouse
From the text: as §2

H-1975 = H-1975 NSCLC CLX model; type: in vivo, mouse
From the text: as §3

[4] = system: 144580 breast patient-derived xenografts; settings: all doses tested (1, 5, 3 and 6 mg/kg), Q4d×4
Method: (§4) For each model described below the first dose was given on Day 1. The tumors were measured at least once a week and their volume was calculated with the formula: tumor volume (mm^3)=0.5×(tumor width^2)(tumor length). The mean tumor volumes (±S. E. M.) for each treatment group were calculated having a maximum of 8-10 animals and a minimum of 6-8 animals to be included.
The 144580 breast patient-derived xenografts were subcutaneously passaged in vivo as fragments from animal to animal in nude (Nu/Nu) female mice. When the tumors reached a volume of 150 to 300 mm^3, they were staged to ensure uniformity of the tumor size among various treatment groups.

N87-TM tumors = assay: In vivo efficacy in T-DM1 resistant N87-TM tumors in NSG mice; parameters: species or system mouse; settings: N87-TM-2 model; 6 and 10 mg/kg
Method: (§5) In order to determine if the resistance observed in cell culture was recapitulated in vivo, parental N87 cells and N87-TM-2 cells were expanded and injected into the flanks of Female NOD scid gamma (NSG) immunodeficient mice (NOD. Cg-Prkdcscid II2rgtm1Wjl/SzJ) obtained from The Jackson Laboratory (Bar Harbor, Me.). Mice were injected subcutaneously in the right flank with suspensions of either N87 or N87-TM cells (7.5×10^6 cells per injection, with 50% Matrigel). Mice were randomized into study groups when tumors reached ˜0.3 g (˜250 mm^3). […] Tumors were measured weekly and mass calculated as volume=(width×width×length)/2. Time-to-event analysis (tumor doubling) was conducted and significance evaluated by Log-rank (Mantel-Cox) test.

JIMT-1 breast xenografts = settings: even at 6 mg/kg, IV Q4d×4
Method: as §4
To generate xenografts, nude (Nu/Nu) female mice were implanted subcutaneously with 5×10^6 JIMT-1 cells (DSMZ# ACC-589) in 50% Matrigel (BD Biosciences). When the tumors reached a volume of 200 to 250 mm^3, the tumors were staged to ensure uniformity of the tumor mass among various treatment groups.

N87 tumors = assay: In vivo efficacy in N87 tumors in NSG mice; parameters: species or system mouse; settings: N87 model; 6 and 10 mg/kg Q4D×4
Method: as §5

[5] = system: 37622 patient-derived xenografts; settings: 10 mg/kg, Q4d×4
Method: as §4
The 37622 patient-derived xenografts were subcutaneously passaged in vivo as fragments from animal to animal in nude (Nu/Nu) female mice. When the tumors reached a volume of 150 to 300 mm^3, they were staged to ensure uniformity of the tumor size among various treatment groups.

N87 gastric xenografts = assay: N87 gastric xenograft model; type: in vivo, mouse; settings: IV Q4d×4
Method: as §4
When the tumors reached a volume of 250 to 450 mm^3, the tumors were staged to ensure uniformity of the tumor mass among various treatment groups.

N87 xenografts = assay: T-DM1 resistance generated in vivo in N87 xenografts and follow-on treatment; parameters: species or system mouse; settings: […] weekly
Method: Tumors were measured twice per week or weekly and mass calculated as volume=(width×width×length)/2.

[6] = system: N87 cell line xenograft tumors; assay: Bystander effect, immunohistocytochemistry (pHH3, human IgG) of N87 xenograft tumors; type: in vivo, mouse; settings: single dose T-DM1 6 mg/kg or T-vc0101 3 mg/kg, tumors harvested 96 hours later
From the text: Tumor sections were stained for human IgG to detect ADC bound to tumor cells and phosphhistone H3 (pHH3) to detect mitotic cells as readout of the proposed mechanism of action for the payloads of both ADCs.

[7] = read-out: sensitivity to free payload (IC50), N87-T-DM1_Ms2
[8] = read-out: sensitivity to free payload (IC50), N87-T-DM1_Ms7
[9] = read-out: sensitivity to free payload (IC50), N87-T-DM1_Ms17

COc1cc2cc(c1Cl)N(C)C(=O)C[C@H](OC(=O)[C@H](C)N(C)C(=O)CCS)[C@]1(C)O[C@H]1[C@H](C)[C@@H]1C[C@@](O)(NC(=O)O1)[C@H](OC)/C=C/C=C(\C)C2 [DM1]
sensitivity of N87-TM cells [1]: retained sensitivity

COc1cccc2c1C(=O)c1c(O)c3c(c(O)c1C2=O)C[C@@](O)(C(=O)CO)C[C@@H]3O[C@H]1C[C@H](N)[C@H](O)[C@H](C)O1 [Doxorubicin]
IC50 (N87 parental cells): 48 nM | IC50 [2, 7]: 46 nM | IC50 [2, 8]: 79 nM | IC50 [2, 9]: 34 nM | sensitivity of T-DM1 resistant cells generated in vivo [2]: No resistance | sensitivity of N87-TM cells [1]: lack of cross-resistance

CC[C@H](C)[C@@H]([C@@H](CC(=O)N1CCC[C@H]1[C@H](OC)[C@@H](C)C(=O)N[C@@H](Cc1ccccc1)c1nccs1)OC)N(C)C(=O)[C@@H](NC(=O)C(C)(C)N)C(C)C [compound 0101, 2-methylalanyl-N-[(3R,4S,5S)-3-methoxy-1-{(2S)-2-[(1R,2R)-1-methoxy-2-methyl-3-oxo-3-{[(1 S)-2-phenyl-1-(1,3-thiazol-2-yl)ethyl]amino}propyl]pyrrolidin-1-yl}-5-methyl-1-oxoheptan-4-yl]-N-methyl-L-valinamide] (H-[Aib]V[Dil][Dolaproine]-Doe)
IC50 (N87 parental cells): 0.5 nM | IC50 [2, 7]: 0.4 nM | IC50 [2, 8]: 0.6 nM | IC50 [2, 9]: 0.28 nM | sensitivity of T-DM1 resistant cells generated in vivo [2]: surprisingly sensitive; also recorded: not resistant | sensitivity of N87-TM cells [1]: retained sensitivity

CC(=O)O[C@H]1C(=O)[C@@]2(C)[C@H]([C@H](OC(=O)c3ccccc3)[C@]3(O)C[C@H](OC(=O)[C@H](O)[C@@H](NC(=O)c4ccccc4)c4ccccc4)C(C)=C1C3(C)C)[C@]1(OC(C)=O)CO[C@@H]1C[C@@H]2O [paclitaxel]
sensitivity of N87-TM cells [1]: lack of cross-resistance

EDB-L19-diS-DM1
Avg IC50 [3]: 237 ng/mL

EDB-L19-vc-0101: anti-EDB antibody L19 conventionally conjugated to vc-0101
tumor response (PDX-PAX-12534): tumor regression in a dose dependent manner | tumor response (PDX-PAX-13565): tumor regression in a dose dependent manner | tumor response (Ramos): tumor regression | tumor response (HT29): tumor regression | Avg IC50 [3]: 15,346 ng/ml | tumor response (PDX-NSX-11122; 1 mg/kg): delayed tumor growth | tumor response (PDX-NSX-11122; 3 mg/kg): complete regressions | tumor response (PDX-NSX-11122; 3 mg/kg and […]): tumor regression | efficacy compared to isotype negative control ADCs and disulfide linker ADCs (PDX-NSX-11122; 1 and 3 mg/kg vs 10 mg/kg EDB-L19-diS-DM1, 5 mg/kg EDB-L19-diS-C2OCO-1569): greater efficacy | tumor response (H-1975; 3 mg/kg): tumor regressions | tumor response (H-1975; 3 mg/kg, and as low as […]): tumor regression | tumor response (H-1975; 0.3, 1 and 3 mg/kg): tumor regression in a dose dependent manner | tumor response (H-1975; highest doses evaluated (3 mg/kg ADC1; 1 mg/kg ADC9)): tumor regression

T-DM1
tumor response [4]: ineffective | prevention of tumor doubling (N87-TM tumors): failed to do so | tumor response (JIMT-1 breast xenografts): inactive | mice in which tumor doubling was prevented for at least 60 days (N87 tumors): > 50% | tumor response [5]: only provided some therapeutic benefit | tumor response (N87 gastric xenografts; 10 mg/kg): complete regression of tumors | tumor response (N87 gastric xenografts; 1 and 3 mg/kg): delayed tumor growth | mice responding to initial T-DM1 treatment (N87 xenografts): 17 out of 20 | bystander effect [6]: is not
